Assay type in all cases: cell-based, mouse
Assay [1] deals with Hedgehog Signaling Pathway. Description: SAG-induced differentiation of C3H10T1/2 cells into osteoblastic cells, intracellular alkaline phosphatase activity. Particulars: 1 μM SAG, 5 days, alkaline phosphatase activity (OD405), read-out: IC50 values of compounds that inhibit Hh pathway. An outline of the steps: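 Mouse C3H10T1/2 cells were induced with SAG and exposed to compound (10 μM to 1 nM) for 5 days at 37 °C. Cells were lysed in 0.2% Triton, and alkaline phosphatase activity was read as OD405 over 30 min at 37 °C in pH 9.8 substrate buffer. IC50 came from a non-linear fit of background-subtracted OD405 against log concentration.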

Assay [2] relates to Hedgehog Signaling Pathway. Description: Gli-Luc reporter gene cell assay in C3H10T1/2/Gli-Luc cells stimulated with Shh. The conditions noted are these: 30 nM Shh, luciferase activity (RLU), read-out: IC50 values of compounds that inhibit Hh pathway. An outline of the steps:
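C3H10T1/2 cells stably carrying Gli-responsive luciferase were seeded overnight, then treated 24 h at 37 °C with compound (7-point dilution series, DMSO control) plus Shh (30 nM in added medium). Lysate luciferase RLU fitted against log concentration to derive IC50.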
(In general: A reporter such as luciferase makes a cellular process visible.)

The test system of assay [3] is Hedgehog Signaling Pathway. Nature of the assay: SHH-induced differentiation of C3H10T1/2 cells into osteoblastic cells, intracellular alkaline phosphatase activity. The conditions noted are these: 10 nM SHH-N, 5 days, alkaline phosphatase activity (OD405), read-out: IC50 values of compounds that inhibit Hh pathway. An outline of the steps:
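Mouse C3H10T1/2 cells were induced with 10 nM SHH-N alongside test compound (10 μM–10 nM) for 5 days at 37 °C. Cells were lysed in 0.2% Triton, and alkaline phosphatase activity was read at OD405 over 30 min at 37 °C with the background reading subtracted. IC50 came from a nonlinear fit against log concentration.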

[4] abbreviates: Mus musculus, C3H 10T1/2, 120 h.

We go through 20 compounds from patent publication US10676468B2, “N-(3-heteroarylaryl)-4-arylarylcarboxamides and analogs as hedgehog pathway inhibitors and use thereof” (IMPACT Therapeutics, Inc., priority 2012, dated 2020).

Where a name gives a salt, the structure may show the parent alone.

For orientation: IC50 means the concentration that gives 50% inhibition. Regarding `Cc1cc(C(=O)Nc2ccc(Cl)c(-c3nc4ccccc4[nH]3)c2)ccc1N1C[C@@H](C)N(C)[C@@H](C)C1` [Example 121, N-(3-(1H-benzo[d]imidazol-2-yl)-4-chlorophenyl)-3-methyl-4-((3S,5R)-3,4,5-trimethylpiperazin-1-yl)benzamide], the IC50 is 29 nM in assay [1] (setting [4]); 1.6 nM in assay [2] (Mus musculus, C3H 10T1/2, 24 h); 23 nM in assay [3] (setting [4]).
In the same order, the values of `Cc1c(C(=O)Nc2ccc(Cl)c(-c3nc4ccccc4[nH]3)c2)ccc(N2C[C@@H](C)N(C)[C@@H](C)C2)c1F` [Example 122, N-(3-(1H-benzo[d]imidazol-2-yl)-4-chlorophenyl)-2-methyl-3-fluoro-4-((3S,5R)-3,4,5-trimethylpiperazin-1-yl)benzamide] are 29 nM, 0.39 nM and 0.52 nM.
`C[C@@H]1CN(c2cc(Cl)c(C(=O)Nc3ccc(Cl)c(-c4nc5ccccc5[nH]4)c3)cc2F)C[C@H](C)N1C` [Example 123, N-(3-(1H-benzo[d]imidazol-2-yl)-4-chlorophenyl)-2-chloro-5-fluoro-4-((3S,5R)-3,4,5-trimethylpiperazin-1-yl)benzamide]: the IC50 was 53 nM in assay [1] (setting [4]); 0.39 nM in assay [2] (Mus musculus, C3H 10T1/2, 24 h); 0.97 nM in assay [3] (setting [4]).
The like results for `CCN1[C@H](C)CN(c2ccc(C(=O)Nc3ccc(Cl)c(-c4nc5ccccc5[nH]4)c3)c(Cl)c2)C[C@@H]1C` [Example 124, N-(3-(1H-benzo[d]imidazol-2-yl)-4-chlorophenyl)-2-chloro-4-((3S,5R)-4-ethyl-3,5-dimethylpiperazin-1-yl)benzamide] were, in that order, 38 nM, 0.8 nM and 0.49 nM.
In the same order, the values of `CC(C)N1[C@H](C)CN(c2ccc(C(=O)Nc3ccc(Cl)c(-c4nc5ccccc5[nH]4)c3)c(Cl)c2)C[C@@H]1C` [Example 125, N-(3-(1H-benzo[d]imidazol-2-yl)-4-chlorophenyl)-2-chloro-4-((3S,5R)-4-isopropyl-3,5-dimethylpiperazin-1-yl)benzamide] are 23 nM, 0.57 nM and 1.2 nM.
The like results for `C[C@H]1CN(c2ccc(C(=O)Nc3ccc(Cl)c(-c4nc5ccccc5[nH]4)c3)c(Cl)c2)CCN1C` [Example 126, (S)—N-(3-(1H-benzo[d]imidazol-2-yl)-4-chlorophenyl)-2-chloro-4-(3,4-dimethylpiperazin-1-yl)benzamide] were, in that order, 81 nM, 2.3 nM and 25 nM.
`C[C@@H]1CN(c2ccc(C(=O)Nc3cnc(Cl)c(-c4nc5ccccc5[nH]4)c3)c(Cl)c2)C[C@H](C)N1C` [Example 127, N-(5-(1H-benzo[d]imidazol-2-yl)-6-chloropyridin-3-yl)-2-chloro-4-((3S,5R)-3,4,5-trimethylpiperazin-1-yl)benzamide]: the IC50 is 34 nM in assay [1] (setting [4]); 1.1 nM in assay [2] (Mus musculus, C3H 10T1/2, 24 h); 1.1 nM in assay [3] (setting [4]).
Turning to `C[C@@H]1CN(c2ccc(C(=O)Nc3cnc(Cl)c(-c4nc5ccccc5[nH]4)c3)c(Cl)c2)C[C@H](C)O1` [Example 128, N-(5-(1H-benzo[d]imidazol-2-yl)-6-chloropyridin-3-yl)-2-chloro-4-((2S,6R)-2,6-dimethylmorpholino)benzamide], the concentration for half-maximal inhibition (IC50) in assay [1] (setting [4]) was determined as 60 nM; in assay [2] (Mus musculus, C3H 10T1/2, 24 h), 5.2 nM; in assay [3] (setting [4]) it was 5.3 nM.
The like results for `C[C@@H]1CN(c2ccc(C(=O)Nc3cnc(Cl)c(-c4nc5ccc(F)cc5[nH]4)c3)c(Cl)c2)C[C@H](C)N1C` [Example 129, N-(5-(6-fluoro-1H-benzo[d]imidazol-2-yl)-6-chloropyridin-3-yl)-2-chloro-4-((3S,5R)-3,4,5-trimethylpiperazin-1-yl)benzamide] were, in that order, 82 nM, 4 nM and 7.5 nM.
In the same order, the values of `C[C@@H]1CN(c2ccc(C(=O)Nc3cnc(Cl)c(-c4nc5ccc(Cl)cc5[nH]4)c3)c(Cl)c2)C[C@H](C)N1C` [Example 130, N-(5-(6-chloro-1H-benzo[d]imidazol-2-yl)-6-chloropyridin-3-yl)-2-chloro-4-((3S,5R)-3,4,5-trimethylpiperazin-1-yl)benzamide] are 178 nM, 8.5 nM and 18 nM.
As to `C[C@@H]1CN(c2ccc(C(=O)Nc3ccc(Cl)c(-c4nc5ccccc5[nH]4)c3)c(Cl)c2)C[C@H](C)N1C` [Example 132, N-(3-(1H-benzo[d]imidazol-2-yl)-4-chlorophenyl)-2-chloro-4-((3S,5R)-3,4,5-trimethylpiperazin-1-yl)benzamide Dihydrochloride], the IC50 was determined as 28 nM in assay [1] (Dihydrochloride); 0.74 nM in assay [2] (24 hours, Dihydrochloride); 0.53 nM in assay [3] (Dihydrochloride).
The like results for `C[C@@H]1CN(c2ccc(C(=O)Nc3ccc(Cl)c(-c4nc5ccccc5[nH]4)c3)cc2Cl)C[C@H](C)N1C` [Example 133, N-(3-(1H-benzo[d]imidazol-2-yl)-4-chlorophenyl)-3-chloro-4-((3S,5R)-3,4,5-trimethylpiperazin-1-yl)benzamide Dihydrochloride] were, in that order, 54 nM, 1.6 nM and 6.3 nM.
`Cc1csc(-c2cnc(-c3cc(NC(=O)c4ccc(N5C[C@@H](C)N(C)[C@@H](C)C5)cc4C)ccc3Cl)[nH]2)c1` [Example 135, N-(3-(5-(4-methylthiophen-2-yl)-1H-imidazol-2-yl)-4-chlorophenyl)-2-methyl-4-((3S,5R)-3,4,5-trimethylpiperazin-1-yl)benzamide]: the IC50 in assay [1] (setting [4]) is 67 nM; in assay [2] (Mus musculus, C3H 10T1/2, 24 h) it was 1.2 nM; in assay [3] (setting [4]) it was 1.5 nM.
In the same order, the values of `Cc1csc(-c2cnc(-c3cc(NC(=O)c4ccc(N5C[C@@H](C)N(C)[C@@H](C)C5)cc4Cl)ccc3Cl)[nH]2)c1` [Example 136, N-(3-(5-(4-methylthiophen-2-yl)-1H-imidazol-2-yl)-4-chlorophenyl)-2-chloro-4-((3S,5R)-3,4,5-trimethylpiperazin-1-yl)benzamide] are 9.2 nM, 0.97 nM and 4 nM.
In the same order, the values of `C[C@@H]1CN(c2ccc(C(=O)Nc3ccc(Cl)c(-c4ncc(-c5ccc(Cl)s5)[nH]4)c3)cc2Cl)C[C@H](C)N1C` [Example 137, N-(3-(5-(5-chlorothiophen-2-yl)-1H-imidazol-2-yl)-4-chlorophenyl)-3-chloro-4-((3S,5R)-3,4,5-trimethylpiperazin-1-yl)benzamide] are 51 nM, 2.3 nM and 15 nM.
The like results for `C[C@@H]1CN(c2ccc(C(=O)Nc3ccc(Cl)c(-c4ncc(-c5ccc(Cl)s5)[nH]4)c3)c(Cl)c2)C[C@H](C)N1C` [Example 138, N-(3-(5-(5-chlorothiophen-2-yl)-1H-imidazol-2-yl)-4-chlorophenyl)-2-chloro-4-((3S,5R)-3,4,5-trimethylpiperazin-1-yl)benzamide] were, in that order, 39 nM, 0.58 nM and 1.6 nM.
Consider `Cc1cc(N2C[C@@H](C)N(C)[C@@H](C)C2)ccc1C(=O)Nc1ccc(Cl)c(-c2ncc(-c3ccsc3)[nH]2)c1` [Example 139, N-(3-(5-(thiophen-3-yl)-1H-imidazol-2-yl)-4-chlorophenyl)-2-methyl-4-((3S,5R)-3,4,5-trimethylpiperazin-1-yl)benzamide], for which the IC50 came to 44 nM in assay [1] (setting [4]); 1.1 nM in assay [2] (Mus musculus, C3H 10T1/2, 24 h); 1.8 nM in assay [3] (setting [4]).
The like results for `C[C@@H]1CN(c2ccc(C(=O)Nc3ccc(Cl)c(-c4ncc(-c5ccsc5)[nH]4)c3)c(Cl)c2)C[C@H](C)N1C` [Example 140, N-(3-(5-(thiophen-3-yl)-1H-imidazol-2-yl)-4-chlorophenyl)-2-chloro-4-((3S,5R)-3,4,5-trimethylpiperazin-1-yl)benzamide] were, in that order, 4.8 nM, 0.21 nM and 0.2 nM.
In the same order, the values of `Cc1c(C(=O)Nc2ccc(Cl)c(-c3ncc(-c4ccsc4)[nH]3)c2)ccc(N2C[C@@H](C)N(C)[C@@H](C)C2)c1F` [Example 141, N-(3-(5-(thiophen-3-yl)-1H-imidazol-2-yl)-4-chlorophenyl)-2-methyl-3-fluoro-4-((3S,5R)-3,4,5-trimethylpiperazin-1-yl)benzamide] are 9.4 nM, 0.35 nM and 0.24 nM.
The like results for `Cc1cc(N2C[C@@H](C)N(C)[C@@H](C)C2)ccc1C(=O)Nc1ccc(Cl)c(-c2nc(C)c(-c3cccs3)[nH]2)c1` [Example 143, N-(3-(4-methyl-5-(thiophen-2-yl)-1H-imidazol-2-yl)-4-chlorophenyl)-2-methyl-4-((3S,5R)-3,4,5-trimethylpiperazin-1-yl)benzamide] were, in that order, 108 nM, 2.3 nM and 15 nM.
